According to article PMC6801822, “The Bactericidal Activity of Temporin Analogues Against Methicillin Resistant Staphylococcus aureus” (International Journal of Molecular Sciences, 2019):
In brackets after ≈: the same amount, converted by molar mass. Non-standard residues stand in square brackets, D forms with d. Residues, ends and D or L forms follow the SMILES beside them. AEEA = NCCOCCOCC(=O)O

Legend:
HaCaT cells [1] = assay: LDH release assay (CytoTox96); assay type: cell-based, human; details: for cytotoxicity (LDH), % of cells: HaCaT, 200 μg/mL
Protocol: (§1) Figure 3 The influence of DAL-PEG-DK5 on physiology of human keratinocytes. The potentially toxic effect of DAL-PEG-DK5 on HaCaT cells was evaluated using (A) MTT and (B) LDH assay. Cells were plated on 96-well plates and incubated overnight. Next, keratinocytes were treated with the peptide at different concentrations (5–200 μg/mL) for 3, 6, 18 h. Mean ± SD n = 2. ** p < 0.005 *** p < 0.001 **** p < 0.0001; 2way ANOVA. (C) Morphology of HaCaT cells was examined by confocal laser scanning microscopy. HaCaT cells were treated with CFS-conjugated DAL-PEG-DK5 (25 μg/mL) for 30 min at 37 °C and were stained with: DAPI and phalloidin for nuclear detection and actin cytoskeleton detection, respectively. Blue – DNA; red – f-actin; green-peptide conjugate; scale bar: 10 μm. Images present single slice of XY stacks.
To assess the effect of peptides on the integrity of the plasma membrane, the LDH release assay was performed using the CytoTox96 nonradioactive cytotoxicity assay kit (Promega, Madison, WI, USA) according to the manufacturer’s instructions. Cytotoxicity was calculated with the formula: % cytotoxicity = 100 × (experimental LDH release/ maximum LDH release), where maximum LDH release is after lysis solution addition (Triton X-100). Relative amounts of LDH release were measured (absorbance at 490 nm) using plate reader SpectraMax (Molecular Device, Wokingham, UK). All assays were performed in triplicate.

[2] = test system: MRSA clinical isolate 7718; details: MRSA clinical isolate 7718 (blood); broth microdilution, MHB, 24 h
Protocol: (§2) Antimicrobial activity of peptides was analyzed through determination of MIC parameter according to the standard microdilution technique performed on 96-well plates. Mueller-Hinton broth (MHB, Sigma Aldrich, St. Louis, MO, USA) was used as the working medium for all bacterial strains. Briefly, inoculum was prepared from freshly grown cultures of bacteria being at their exponential phase of growth. Each well of 96-well plates containing 100 µL of serially diluted peptides in PBS at desired concentration was inoculated with 100 µL of 10^5 CFU/mL of bacterial suspension. Then plates were incubated overnight 37 °C and absorbance was read at 600 nm after 24 h. Wells without peptide were treated as the positive control, while uninoculated MHB was defined as the negative control. All measurements were run in triplicates.

S. aureus USA300 [3] = details: MRSA; equal to 40 μg/mL
Protocol: as §2

[4] = test system: MRSA clinical isolate 1694; details: MRSA clinical isolate 1694 (blood); broth microdilution, MHB, 24 h
Protocol: as §2

S. aureus Newman = details: S. aureus Newman; broth microdilution, MHB, 37 °C, 24 h, triplicates
Protocol: as §2

[5] = test system: MRSA clinical isolate 2706; details: MRSA clinical isolate 2706 (blood); broth microdilution, MHB, 24 h
Protocol: as §2

[6] = test system: MRSA clinical isolate 7569; details: MRSA clinical isolate 7569 (blood); broth microdilution, MHB, 24 h
Protocol: as §2

[7] = test system: MRSA clinical isolate 4187; details: MRSA clinical isolate 4187 (blood); broth microdilution, MHB, 24 h
Protocol: as §2

[8] = test system: MRSA clinical isolate 7501; details: MRSA clinical isolate 7501 (blood); broth microdilution, MHB, 24 h
Protocol: as §2

[9] = test system: MRSA clinical isolate 6674; details: MRSA clinical isolate 6674 (blood); broth microdilution, MHB, 24 h
Protocol: as §2

[10] = test system: MRSA clinical isolate 3417; details: MRSA clinical isolate 3417 (blood); broth microdilution, MHB, 24 h
Protocol: as §2

[11] = cited from earlier work
Description: The efficient antibacterial activity of the DAL-PEG-DK5 conjugate may be due to the fact that it has a higher cationic charge than DK5 (+7 vs. +6, respectively). However, a α-helicity must also play an important role in this case. According to a common view about the mechanism underlying the antimicrobial activity of AMPs, formation of hel ...

[12] = test system: intracellular S. aureus USA300 in HaCaT cells; assay: Killing of intracellular S. aureus in keratinocytes, CFU count
Protocol: (A) USA300 survival within infected HaCaT cells. Keratinocytes were infected with USA300 (MOI 1:5, 1:25, 1:50, 1:100) for 2.5 h and treated with DAL-PEG-DK5 (50 μg/mL) for 3 h. Afterwards, keratinocytes were lysed and plated on agar plates for counting of bacteria. The number of viable bacterial cells is expressed as CFU/mL with respect to the number of intracellular bacteria in the corresponding control samples. The data shown is representative of two separate experiments performed in triplicate. Mean ± SD n = 2. * p < 0.01; ** p < 0.005; one-way ANOVA. (B) Keratinocytes were infected with USA300 (MOI 1:50) for 2.5 h and treated with DAL-PEG-DK5 (50 μg/mL) for indicated time points (1, 3, 6 h). Afterwards, keratinocytes were lysed and plated on agar plates for counting of bacteria. The number of viable bacterial cells is expressed as a CFU/mL with respect to the number of intracellular bacteria in the corresponding control samples. Mean ± SD n = 2. * p < 0.01; ** p < 0.005; **** p < 0.0001; one-way ANOVA. […] (C) Keratinocytes were infected with USA300 (MOI 1:50) for 2.5 h and treated with DAL-PEG-DK5 (50 μg/mL) for 1 h. Afterwards, keratinocytes were lysed and plated on agar plates for counting of bacteria. […] The number of viable bacterial cells is expressed as a % of control with respect to the number of intracellular bacteria/bacteria in suspension in the corresponding control samples. […]

S. aureus USA300 [13] = assay: LIVE/DEAD BacLight staining (SYTO9/PI); assay type: cell-based, Staphylococcus aureus; details: 3 h, n = 2
Protocol: USA300 cells were collected from overnight cultures, at the end of the exponential growth phase and the beginning of the stationary phase, washed and suspended at 2 × 10^7 bacteria/mL and staphylococci were treated with DAL-PEG-DK5 (0.5–50 µg/mL) for 3 h. In order to obtain a standard curve, five different proportions of live and dead bacteria were mixed prior to staining. After the incubation, the 100 µL of bacterial suspensions were transferred to flat bottom black 96-well microtitration plate. Staining solution containing SYTO9 and PI (100 µL) prepared according to manufacturer’s instructions was then mixed with bacterial suspensions. Samples were incubated at room temperature in the dark for 15 min and fluorescence intensity was measured with FlexStation3 Multimode Microplate Reader using a 485 nm excitation filter (for both SYTO9 and PI) and a 530 nm (SYTO9 emission wavelength) and 630 nm (PI emission wavelength) emission filter. The data were analyzed by dividing the fluorescence intensity of the stained bacterial suspensions at green emission by the cell fluorescence intensity of red fluorescence. All samples were prepared in triplicates.

HaCaT cells [14] = assay: MTT cell viability test; assay type: cell-based, human
Protocol: as §1
The viability of HaCaT cells was examined by a 3-(4,5-dimethylthiazol-2-yl)-2,5-diphenyltetrazolium bromide (MTT, Sigma-Aldrich) reduction assay. In brief, cells were incubated with 10% (v/v) of a 5 mg/mL MTT solution for 1 to 2 h at 37 °C until purple precipitate is visible and acidified isopropanol was added followed by measuring of the absorbance at a wavelength of 570 nm.

S. aureus USA300 biofilm = assay: Disruption of mature biofilm, crystal violet; details: mature biofilm (24 h) of USA300, peptide at 4 × MIC (160 μg/mL), n = 3
Protocol: USA300 strain was grown in 96-well plates at 37 °C for 24 h to form biofilm. Peptide was added at desired concentrations and plates were incubated for additional 24 h. […] Mean ± SD n = 3. ** p < 0.0151; one-way ANOVA.
Briefly, USA300 strain grown overnight was diluted 1:100 in TSB + 1% glucose and incubated in 96-well plates at 37 °C for 24 h. After removing media, wells were rinsed with PBS to remove planktonic bacteria before re-filling wells with fresh MHB. Peptide conjugates were added at desired concentrations and plates were incubated at 37 °C for 24 h. After incubation, wells were washed and biofilms were stained with 0.5% (w/v) crystal violet for 30 min. The dye was solubilized with ethanol (95%) and the OD of biofilms was measured.

[15] = test system: MRSA clinical isolate 2492; details: MRSA clinical isolate 2492 (blood); broth microdilution, MHB, 24 h
Protocol: as §2

S. aureus ATCC 25923 = details: S. aureus ATCC 25923; broth microdilution, MHB, 37 °C, 24 h, triplicates
Protocol: as §2

CC[C@H](C)[C@H](NC(=O)COCCOCCNC(=O)[C@H](CCCNC(=N)N)NC(=O)[C@H](CC(C)C)NC(=O)[C@H](Cc1ccccc1)NC(=O)CNC(=O)[C@@H](C)NC(=O)[C@@H](N)Cc1ccc(O)cc1)C(=O)N[C@@H](CCCCN)C(=O)N[C@@H](CCCCN)C(=O)N[C@H](C(=O)N[C@@H](CC(C)C)C(=O)N[C@@H](CO)C(=O)N[C@H](CCCCN)C(=O)N[C@H](C(=O)N[C@@H](CCCCN)C(=O)N[C@@H](CCCCN)C(=O)N[C@@H](CC(C)C)C(=O)N[C@@H](CC(C)C)C(N)=O)[C@@H](C)CC)[C@@H](C)CC [DAL-PEG-DK5] (H-Y[dA]GFLR[AEEA]IKKILS[dK]IKKLL-NH2; N-terminus assumed)
LDH release from HaCaT cells (HaCaT cells [1]; 75 μg/mL): low, but still significant, release of dehydrogenase
cytotoxicity (LDH), % of cells (HaCaT cells [1]; 3 and 6 h): 40%
cytotoxicity (LDH), % of cells (HaCaT cells [1]; 18 h): 100%
non-toxic dose for HaCaT cells (HaCaT cells [1]; based on MTT and LDH data): ≤ 50 µg/mL
MIC [2]: 50 µg/mL (≈ 22 µM)
MIC (S. aureus USA300 [3]): 17.56 µM (≈ 40 µg/mL)
MIC [4]: 70 µg/mL (≈ 30.7 µM)
MIC (S. aureus Newman): 140 µg/mL (≈ 61.5 µM)
MIC [5]: 40 µg/mL (≈ 17.6 µM)
MIC [6]: 40 µg/mL (≈ 17.6 µM)
MIC [7]: 40 µg/mL (≈ 17.6 µM)
MIC [8]: 40 µg/mL (≈ 17.6 µM)
MIC [9]: 40 µg/mL (≈ 17.6 µM)
MIC [10]: 40 µg/mL (≈ 17.6 µM)
α-helical content ([11]; circular dichroism, 30 mM SDS in water): 35%
cationic charge [11]: +7
reduction of intracellular USA300 load ([12]; HaCaT infected 2.5 h at MOI 1:50 and 1:100, peptide 50 μg/mL, 3 h): more than 60%
reduction of MRSA load in keratinocytes ([12]; HaCaT, USA300 MOI 1:50, peptide 50 μg/mL (1.25 × MIC), 1 h, n = 2): 71.5%
live bacteria (S. aureus USA300 [13]; USA300, 5 μg/mL): 20%
live bacteria (S. aureus USA300 [13]; USA300, 10 μg/mL): 5%
effect on metabolism of HaCaT cells (MTT) (HaCaT cells [14]; 5 to 75 μg/mL, 3, 6 and 18 h, n = 2): did not affect the metabolism of HaCaT cells
effect on metabolically active HaCaT cells (MTT) (HaCaT cells [14]; 100 or 200 μg/mL, 3, 6, 18 h): reduced the number of metabolically active cells in a concentration-dependent manner
reduction of biofilm mass (S. aureus USA300 biofilm): 50%
MIC [15]: 40 µg/mL (≈ 17.6 µM)
MIC (S. aureus ATCC 25923): 40 µg/mL (≈ 17.6 µM)
